The values below come from patent US5137711A, “Paramagnetic DTPA and EDTA alkoxyalkylamide complexes as MRI agents” (Mallickrodt Medical, Inc., priority 1989, dated 1992).

This series deals with ICR mice. Kind of series: acute intravenous toxicity in ICR mice. In kind it is in vivo. Here is the method:
The acute intravenous toxicity of the compound of Example II was determined as follows: ICR mice, at 1 to 4 per dose level, received single intravenous injections of the test substance via a lateral tail vein at the rate of approximately 1 ml/minute. The test substances were at concentrations chosen to result in dose volumes of 5 to 75 ml/kg body weight. Dosing began at a volume of 10 ml/kg. Dose adjustments up or down were made to closely bracket the estimated LD50 with 4 animals per group (2 males and 2 females). Observations of the mice were recorded at times 0, 0.5, 1,2,4 and 24 hours and once daily thereafter for up to 7 days post injection. On the 7th day post injection, the mice were euthanized, weighed and necropsied. Abnormal tissues were noted. At this time a decision was made as to whether any histopathology was to be performed and whether or not the tissues should be retained. Necropsies were also performed on mice expiring after 24 hours post-injection, except for dead mice found on the weekends The LD50 values, along with 95% CI were calculated using a modified Behrens-Reed-Meunch method. The results for the complex of Example II are reported below:
Sex and Weight Range of Mice: Males(18.0-20.3 g) Females (19.0-21.7 g)

The structures appear in SMILES notation.

Turning to `COCCNC(=O)CN(CCN(CCN(CC(=O)[O-])CC(=O)NCCOC)CC(=O)[O-])CC(=O)[O-].[Gd+3]` [Example II, {N,N"-Bis[N-(2-methoxyethyl)-carbamoylmethyl]diethylenetriamine-N,N',N"-triaceto} gadolinium (III)], for the setting “7-day post-injection period, i.v.”, the “Body weight of surviving mice” value is recorded as “failed to gain weight”. The “i.v. toxicity (overall, in words)” value (preliminary tests, mice) is reported as “low order of i.v. toxicity”.
